Assay results from patent US4210749A, “Substituted 1,2,4,5-tetrahydro-3H,3 benzazepines” (priority 1979, dated 1980).
Structures can show the parent of a compound that is named as a salt.

Assays:
[1] = system: isolated segments of guinea pig ileum (acetylcholine); test: Anticholinergic activity: block of acetylcholine in isolated segments of guinea pig ileum
[2] = system: isolated segments of guinea pig ileum (histamine); test: Antihistaminic activity: block of histamine in isolated segments of guinea pig ileum
sciatic block = test: Local anesthetic sciatic block, Table IV; type: in vivo; conditions: 1%
[3] = Narcotic antagonism I.P., Table IV; type: in vivo
[4] = I.P. symptomatology (highest tolerated dose, median lethal dose), Table IV; type: in vivo; conditions: in vivo, ip; for MTD: read-out: HTD (highest tolerated dose)
[5] = Mouse tail stimulation (MST), Table IV; type: in vivo; set-up: unit not given here; conditions: S.C.
[6] = Analgesic activity, writhing method; type: in vivo; conditions: po
in vivo [7] = test: in vivo
[8] = Analgesic activity, hot plate method; type: in vivo
in vivo [9] = test: in vivo; remark: listed apart in the source

SMILES | Local Anesthetic Sciatic Block (sciatic block) | Narcotic Antagonism [3] | LD50 [4] [mg/kg] | MTD [4] [mg/kg] | MST (mouse tail stimulation) [5] | other results
COc1ccc2c(c1)CCN(C(C)Cc1ccccc1)CC2 (racemic) [Example 26, 7-Methoxy-3-(1-methyl-2-phenylethyl)-1,2,4,5-tetrahydro-3H,3-benzazepine] |  |  |  |  |  | Conc. for 50% block of Acetylcholine [1]: 94 μg/20 ml; Conc. for 50% block of Histamine [2]: 54 μg/20 ml
CN1[C@@H]2CC[C@H]1C[C@@H](OC(=O)C(CO)c1ccccc1)C2 (stereo partly drawn) [Atropine, reference compound] |  |  |  |  |  | Conc. for 50% block of Acetylcholine [1]: 0.0035 μg/20 ml; Conc. for 50% block of Histamine [2]: 37 μg/20 ml
COc1ccc2c(c1)CCNCC2 [Example 1, 7-Methoxy-1,2,4,5-tetrahydro-3H,3-benzazepine] | Positive | Negative | 60 | 3 | > 3 | 
CC(=O)Oc1ccc2c(c1)CCN(CC=C(C)C)CC2 [Example 5, 7-Acetoxy-3-(3,3-dimethylallyl)-1,2,4,5-tetrahydro-3H,3-benzazepine hydrochloride] | Positive | Positive | ~200 | ~10 | > 30 | 
COc1ccc2c(c1)CCN(CC1CC1)CC2 [Example 7, 3-Cyclopropylmethyl-7-methoxy-1,2,4,5-tetrahydro-3H,3-benzazepine] | Positive | Negative | 100 | 40 |  | Conc. for 50% block of Acetylcholine [1]: 220 μg/20 ml; Conc. for 50% block of Histamine [2]: 20 μg/20 ml
Oc1ccc2c(c1)CCN(CCc1ccccc1)CC2 [Example 25, 7-Hydroxy-3-phenethyl-1,2,4,5-tetrahydro-3H,3-benzazepine] |  |  |  |  |  | ED50 [6]: > 178 mg/kg; NOAEL (in vivo [7]; po): 178 mg/kg; ED50 ([8]; ip): 26 mg/kg; ED50 ([8]; po): > 178 mg/kg; LD50 (in vivo [9]; po): > 1000 mg/kg
Oc1ccc2c(c1)CCN(CC=Cc1ccccc1)CC2 [Example 29, 7-Hydroxy-3-(3-phenylallyl)-1,2,4,5-tetrahydro-3H,3-benzazepine] |  |  |  |  |  | ED50 [6]: 210 mg/kg; NOAEL (in vivo [7]; ip): 300 mg/kg; NOAEL (in vivo [7]; po): 1000 mg/kg; ED50 ([8]; ip): 230 mg/kg; ED50 ([8]; po): > 1000 mg/kg; LD50 (in vivo [9]; po): > 1000 mg/kg
CC(C)=CCN1CCc2ccc(O)cc2CC1C (stereo not drawn) [Example 34, 3-(3,3-Dimethylallyl)-8-hydroxy-2-methyl-1,2,4,5-tetrahydro-3H,3-benzazepine hydrochloride] | Positive | Positive | 60 | 10 | > 40 | 
COc1ccc2c(c1)CC(C)N(CCc1ccccc1)CC2 (stereo not drawn) [Example 36, 8-Methoxy-2-methyl-3-phenethyl-1,2,4,5-tetrahydro-3H,3-benzazepine hydrochloride] | Insoluble | Negative | 60 | 10 | 10 | 
C=CCN1CCc2ccc(OC)cc2CC1C (stereo not drawn) [Example 38, 3-Allyl-8-methoxy-2-methyl-1,2,4,5-tetrahydro-3H,3-benzazepine hydrochloride] |  | Positive | 200 | 10 | > 10 | 
CC1Cc2cc(O)ccc2CCN1CC1CC1 (stereo not drawn) [Example 41, 3-Cyclopropylmethyl-8-hydroxy-2-methyl-1,2,4,5-tetrahydro-3H,3-benzezepine hydrochloride] | Positive | Negative | ~60 | ~3 | > 30 | 
CC(C)=CCN1CCC2(C)c3cc(O)ccc3CC1C2C (stereo not drawn) [Pentazocine, reference compound] |  |  |  |  |  | ED50 [6]: 70 mg/kg; NOAEL (in vivo [7]; ip): 316 mg/kg; NOAEL (in vivo [7]; po): 316 mg/kg; ED50 ([8]; ip): 100 mg/kg; ED50 ([8]; po): > 316 mg/kg; LD50 (in vivo [9]; ip): > 600 mg/kg; LD50 (in vivo [9]; po): ~800 mg/kg
